Test: Determination of GC-odour threshold concentration (gas chromatograph with sniff port, panel of trained evaluators)
Conditions: for odour threshold concentration, geometric mean: GC sniff port, absolute amount of compound delivered at the sniff port, group of 5 panelists, identical conditions; for odour threshold of the (Z)-isomer compared to its corresponding (E)-isomer (times higher): pure (Z)-isomer versus pure (E)-isomer
Description: The odour threshold concentration is defined as the lowest concentration of the vapour of an odourant material in the air which can be detected by smell and can be measured by standard methods known in the art.
According to standard procedures known to the person skilled in the art, threshold concentrations for volatile perfumery compounds are determined on a gas chromatograph equipped with a sniff port by a panel of trained evaluators. The lowest concentration smelled by each panellist is recorded as the individual threshold concentration expressed in ng (absolute amount of compound delivered at the sniff port).
Under identical conditions the odour threshold concentration for (E)-2-methyl-4-dodecenal (prior art), (E)-3-methyl-4-dodecenal and (E)-4-methyl-4-dodecenal was measured and compared by a group of 5 panelists.

| SMILES | odour threshold concentration, geometric mean [ng] | odour threshold of the (Z)-isomer compared to its corresponding (E)-isomer (times higher) [times] |
| --- | --- | --- |
| CCCCCCC/C=C/CC(C)C=O (centres unmarked) [(E)-2-methyl-4-dodecenal, reference compound] | 3.2 | – |
| CCCCCCC/C=C/C(C)CC=O (centres unmarked) [(E)-3-methyl-4-dodecenal] | 1.0 | – |
| CCCCCCC/C=C(\C)CCC=O [(E)-4-methyl-4-dodecenal, (E)-4-Methyl-4-dodecenal] | 0.05 | – |
| CCCCCCC/C=C\C(C)CC=O (centres unmarked) [(Z)-3-methyl-4-dodecenal] | – | 5 |
| CCCCCCC/C=C(/C)CCC=O [(Z)-4-methyl-4-dodecenal, (Z)-4-Methyl-4-dodecenal] | – | 20 |

Source: patent US8399399B2, “3- and 4-methyl dodecenal and their use in fragrance and flavour compositions” (Givaudan SA, priority 2005, dated 2013)
